Results as given in patent US20140011757A1, “NOVEL MACROLIDE DERIVATIVE” (MEIJI SEIKA PHARMA CO., LTD., priority 2011, published 2014).
Values after ≈ are worked out from the molar mass of the structure shown. Values joined by “and” are separate entries in the source; they are usually repeats but may differ in a detail not shown here. Equal entries are not always repeated. Where two headings read alike, the source gives them in different places.

Experiments:
P. multocida = assay: In vitro antibacterial activity, broth microdilution MIC (CLSI M31-A2); type: cell-based, Pasteurella multocida
Experimental: (§1) Hereinafter, a description is made of an evaluation method for the compound. The compound was measured for its in vitro antibacterial activity by a broth microdilution method in accordance with a CLSI method (formerly NCCLS method, […]-A2) (Performance Standards for Antimicrobial Disk and Dilution Susceptibility Tests for Bacteria Isolated from Animals; Approved Standard-Second Edition NCCLS […]-A2 Vol. 22 No. 6 2002). A medium used was BBL Mueller Hinton II broth supplemented with lysed horse blood and NAD. A test drug solution at each concentration level obtained by dissolving a test drug in ethanol and then diluting the resultant with the liquid medium described above was dispensed into a 96-well microplate, and a test bacterial strain was inoculated. After having been cultured in the presence of 5% CO2 at 37° C. for 20 to 24 hours, the test bacterial strain was visually observed for the presence or absence of its growth. A minimum drug concentration completely inhibiting the growth of the test bacterial strain was defined as a minimum inhibitory concentration (hereinafter, referred to as MIC). The compound obtained in the present invention was measured for its in vitro antibacterial activity by a broth microdilution method in accordance with a CLSI method (formerly NCCLS method, […]-A2) (Performance Standards for Antimicrobial Disk and Dilution Susceptibility Tests for Bacteria Isolated from Animals; Approved Standard-Second Edition NCCLS […]-A2 Vol. 22 No. 6 2002). A medium composition used in the measurement is shown below. […] The resultant test drug solution was further subjected to two-step dilution with the liquid medium described above to prepare a test drug solution at each concentration level. The thus prepared test drug solution at each concentration level was dispensed into a 96-well microplate at 100 μL/well, and a test bacterial strain was inoculated at about 5×10^4 CFU/well. After having been cultured in the presence of 5% CO2 at 37° C. for 20 to 24 hours, the test bacterial strain was visually observed for the presence or absence of its growth. A minimum drug concentration completely inhibiting the growth of the test bacterial strain was defined as a minimum inhibitory concentration (hereinafter, referred to as MIC). […] Saponin was dissolved with purified water. The solution was sterilized and then added to defibrinated horse blood.

A. pleuropneumoniae = assay: as above; type: cell-based, Actinobacillus pleuropneumoniae
Experimental: as §1

M. haemolytica = assay: as above; type: cell-based, Mannheimia haemolytica
Experimental: as §1

H. somni = assay: as above; type: cell-based, Histophilus somni
Experimental: as §1

H. parasuis = assay: as above; type: cell-based, Haemophilus parasuis
Experimental: as §1

[1] = tested on: main pathogens of bacterial respiratory tract infections in livestock animals such as cattle and swine; type: cell-based
[2] = Pasteurella multocida, ATCC43019, P. multocida (bovine) strain ATCC43019, read-out: MIC
[3] = Pasteurella multocida, ATCC43137, P. multocida (swine) strain ATCC43137, read-out: MIC
[4] = Pasteurella multocida, P. multocida (bovine) strain 11272, read-out: MIC
[5] = Pasteurella multocida, P. multocida (bovine) strain 11325-1, read-out: MIC
[6] = Pasteurella multocida, P. multocida (bovine) strain 11787-24, read-out: MIC
[7] = Pasteurella multocida, P. multocida (swine) strain 11587-3, read-out: MIC
[8] = Pasteurella multocida, P. multocida (swine) strain 11745-15, read-out: MIC
[9] = Actinobacillus pleuropneumoniae, A. pleuropneumoniae strain 10895-2, read-out: MIC
[10] = Actinobacillus pleuropneumoniae, A. pleuropneumoniae strain 11684-7, read-out: MIC
[11] = Actinobacillus pleuropneumoniae, A. pleuropneumoniae strain 11796-1, read-out: MIC
[12] = Actinobacillus pleuropneumoniae, A. pleuropneumoniae strain 11804-2, read-out: MIC
[13] = Actinobacillus pleuropneumoniae, ATCC27089, A. pleuropneumoniae strain ATCC27089, read-out: MIC
[14] = Mannheimia haemolytica, M. haemolytica strain 11443, read-out: MIC
[15] = Mannheimia haemolytica, M. haemolytica strain 11467-2, read-out: MIC
[16] = Histophilus somni, H. somni strain 11321, read-out: MIC
[17] = Histophilus somni, H. somni strain 11423-3, read-out: MIC
[18] = Glaesserella parasuis, H. parasuis strain 11510-1, read-out: MIC
[19] = Glaesserella parasuis, H. parasuis strain 11640-1, read-out: MIC

Compound	MIC (P. multocida; [2]) [µg/mL]	MIC (P. multocida; [3]) [µg/mL]	MIC (P. multocida; [4]) [µg/mL]	MIC (P. multocida; [5]) [µg/mL]	MIC (P. multocida; [6]) [µg/mL]	MIC (P. multocida; [7]) [µg/mL]	MIC (P. multocida; [8]) [µg/mL]	MIC (A. pleuropneumoniae; [9]) [µg/mL]	MIC (A. pleuropneumoniae; [10]) [µg/mL]	MIC (A. pleuropneumoniae; [11]) [µg/mL]	MIC (A. pleuropneumoniae; [12]) [µg/mL]	MIC (A. pleuropneumoniae; [13]) [µg/mL]	MIC (M. haemolytica; [14]) [µg/mL]	MIC (M. haemolytica; [15]) [µg/mL]	MIC (H. somni; [16]) [µg/mL]	MIC (H. somni; [17]) [µg/mL]	MIC (H. parasuis; [18]) [µg/mL]	MIC (H. parasuis; [19]) [µg/mL]	other results
CO[C@@H]1C(OC2O[C@@H](C)C(O)C(N(C)C)C2O)[C@@H](CC=O)C[C@@H](C)[C@@H](OC(C)=O)/C=C/[C@@H](N(C)CCCc2ccnc3ccccc23)[C@@H](O)C[C@@H](C)OC(=O)C[C@H]1OC(C)=O (stereo partly shown) [Compound of formula (I)]	4	4	4	2	4	4	4	4	32	4	8	4	4	4	0.5	1	0.5	4	MIC corresponding to an activity enhanced as compared to josamycin [1]: approximately 8 fold; MIC corresponding to an activity enhanced as compared to tulathromycin [1]: ≥ 4 fold; antibacterial activities as compared to the existing drugs [1]: remarkably strong antibacterial activities
CO[C@@H]1[C@@H](O[C@@H]2O[C@H](C)[C@@H](O[C@H]3C[C@@](C)(O)[C@@H](OC(=O)CC(C)C)[C@H](C)O3)[C@H](N(C)C)[C@H]2O)[C@@H](CC=O)C[C@@H](C)[C@@H](O)/C=C/C=C/C[C@@H](C)OC(=O)C[C@H]1OC(C)=O [JM, josamycin]	64 (≈ 77.3 µM)	32 (≈ 38.6 µM)	16 (≈ 19.3 µM)	8 (≈ 9.66 µM)	32 (≈ 38.6 µM)	32 (≈ 38.6 µM)	32 (≈ 38.6 µM)	32 (≈ 38.6 µM)	64 (≈ 77.3 µM)	16 (≈ 19.3 µM)	8 (≈ 9.66 µM)	16 (≈ 19.3 µM)	16 (≈ 19.3 µM)	32 (≈ 38.6 µM)	2 (≈ 2.42 µM)	8 (≈ 9.66 µM)	8 (≈ 9.66 µM)	32 (≈ 38.6 µM)	
CCCNC[C@]1(O)[C@H](C)O[C@@H](O[C@H]2[C@H](C)[C@@H](O[C@@H]3O[C@H](C)C[C@H](N(C)C)[C@H]3O)[C@](C)(O)C[C@@H](C)CN[C@H](C)[C@@H](O)[C@](C)(O)[C@@H](CC)OC(=O)[C@@H]2C)C[C@@]1(C)OC [TLM, tulathromycin]																			MIC (P. multocida; P. multocida (bovine) strain 11272): 16 µg/mL (≈ 19.8 µM); MIC (P. multocida; P. multocida (bovine) strain 11325-1): 4 µg/mL (≈ 4.96 µM); MIC (P. multocida; P. multocida (bovine) strain 11787-24): 8 µg/mL (≈ 9.92 µM); MIC (P. multocida; P. multocida (bovine) strain ATCC43019): 16 µg/mL (≈ 19.8 µM); MIC (P. multocida; P. multocida (swine) strain 11587-3): 16 µg/mL (≈ 19.8 µM); MIC (P. multocida; P. multocida (swine) strain 11745-15): 8 µg/mL (≈ 9.92 µM); MIC (P. multocida; P. multocida (swine) strain ATCC43137): 16 µg/mL (≈ 19.8 µM); MIC (A. pleuropneumoniae; A. pleuropneumoniae strain 10895-2): 16 µg/mL (≈ 19.8 µM); MIC (A. pleuropneumoniae; A. pleuropneumoniae strain 11684-7): 64 µg/mL (≈ 79.4 µM); MIC (A. pleuropneumoniae; A. pleuropneumoniae strain 11796-1): 16 µg/mL (≈ 19.8 µM); MIC (A. pleuropneumoniae; A. pleuropneumoniae strain 11804-2): 16 µg/mL (≈ 19.8 µM); MIC (A. pleuropneumoniae; A. pleuropneumoniae strain ATCC27089): 32 µg/mL (≈ 39.7 µM); MIC (M. haemolytica; M. haemolytica strain 11443): 16 µg/mL (≈ 19.8 µM); MIC (M. haemolytica; M. haemolytica strain 11467-2): 32 µg/mL (≈ 39.7 µM); MIC (H. somni; H. somni strain 11321): 1 µg/mL (≈ 1.24 µM); MIC (H. somni; H. somni strain 11423-3): 1 µg/mL (≈ 1.24 µM); MIC (H. parasuis; H. parasuis strain 11510-1): 4 µg/mL (≈ 4.96 µM); MIC (H. parasuis; H. parasuis strain 11640-1): 8 µg/mL (≈ 9.92 µM)
CC[C@H]1OC(=O)C[C@@H](O)[C@H](C)[C@@H](O[C@@H]2O[C@H](C)[C@@H](O)[C@H](N(C)C)[C@H]2O)[C@@H](CCN2C[C@H](C)C[C@H](C)C2)C[C@@H](C)C(=O)/C=C/C(C)=C/[C@@H]1CO[C@@H]1O[C@H](C)[C@@H](O)[C@@H](OC)[C@H]1OC [TMS, tilmicosin]	32 (≈ 36.8 µM)	16 (≈ 18.4 µM)	32 (≈ 36.8 µM)	16 (≈ 18.4 µM)	16 (≈ 18.4 µM)	16 (≈ 18.4 µM)	16 (≈ 18.4 µM)	16 (≈ 18.4 µM)	128 (≈ 147 µM)	16 (≈ 18.4 µM)	16 (≈ 18.4 µM)	16 (≈ 18.4 µM)	16 (≈ 18.4 µM)	8 (≈ 9.2 µM)	1 (≈ 1.15 µM)	4 (≈ 4.6 µM)	1 (≈ 1.15 µM)	16 (≈ 18.4 µM)	
CC[C@H]1OC(=O)C[C@@H](O)[C@H](C)[C@@H](O[C@@H]2O[C@H](C)[C@@H](O[C@H]3C[C@@](C)(O)[C@@H](O)[C@H](C)O3)[C@H](N(C)C)[C@H]2O)[C@@H](CC=O)C[C@@H](C)C(=O)/C=C/C(C)=C/[C@@H]1CO[C@@H]1O[C@H](C)[C@@H](O)[C@@H](OC)[C@H]1OC [TS, tylosin]	64 (≈ 69.9 µM)	64 (≈ 69.9 µM)	64 (≈ 69.9 µM)	16 (≈ 17.5 µM)	32 (≈ 34.9 µM)	64 (≈ 69.9 µM)	64 (≈ 69.9 µM)	16 (≈ 17.5 µM)	256 (≈ 279 µM)	32 (≈ 34.9 µM)	32 (≈ 34.9 µM)	32 (≈ 34.9 µM)	16 (≈ 17.5 µM)	128 (≈ 140 µM)	1 (≈ 1.09 µM)	4 (≈ 4.37 µM)	4 (≈ 4.37 µM)	8 (≈ 8.73 µM)	
aivlosin																			MIC (P. multocida): 256 µg/mL and 128 µg/mL; MIC (A. pleuropneumoniae): 32 µg/mL and 64 µg/mL; MIC (M. haemolytica): 32 µg/mL and 64 µg/mL; MIC (H. parasuis): 16 µg/mL and 32 µg/mL
